Data taken from ChEMBL document CHEMBL5360585, “Spectasterols, Aromatic Ergosterols with 6/6/6/5/5, 6/6/6/6, and 6/6/6/5 Ring Systems from Aspergillus spectabilis” (J Nat Prod, 2023).
pIC50: −log10 of the molar value. The source made the active and inactive calls. No cut-off for these calls is given here.

What was measured:
RAW264.7 [1] = assay: Antiinflammatory activity in LPS-induced mouse RAW264.7 cells assessed as reduction in iNOS mRNA expression at 5 to 20 uM incubated for 24 hrs by qRT-PCR analysis; type: functional, cell-based; conditions: dose 5-20 µM
HL-60 [2] = assay: Induction of apoptosis in human HL-60 cells assessed as late apoptotic cells at 14 uM incubated for 48 hrs by Annexin V-FITC/PI staining based flow cytometric analysis (reference value: 4.53%); type: functional
HL-60 [3] = assay: Induction of cell cycle arrest in human HL-60 cells assessed as G2 phase cells at 7 uM incubated for 48 hrs (reference value: 23.7%); type: functional
HL-60 [4] = assay: Induction of cell cycle arrest in human HL-60 cells assessed as S phase cells at 14 uM incubated for 48 hrs (reference value: 32.3%); type: functional
RAW264.7 [5] = assay: Antiinflammatory activity in LPS-induced mouse RAW264.7 cells assessed as reduction in COX2 mRNA expression at 5 to 20 uM incubated for 24 hrs by qRT-PCR analysis; type: functional, cell-based; conditions: dose 5-20 µM
HL-60 [6] = assay: Induction of cell cycle arrest in human HL-60 cells assessed as accumulation of G1 phase cells at 7 uM incubated for 48 hrs (reference value: 42.0%); type: functional
SU-DHL-2 = assay: Cytotoxicity against human SUDHL2 cells assessed as inhibition of cell growth incubated for 48 hrs by CCK8 assay; type: functional, cell-based; conditions: SU-DHL-2, 48 h
RAW264.7 [7] = assay: Antiinflammatory activity in LPS-induced mouse RAW264.7 cells assessed as reduction in IL-1beta mRNA expression at 5 to 20 uM incubated for 24 hrs by qRT-PCR analysis; type: functional, cell-based; conditions: dose 5-20 µM
HL-60 [8] = assay: Induction of apoptosis in human HL-60 cells assessed as necrotic cells at 7 uM incubated for 48 hrs by Annexin V-FITC/PI staining based flow cytometric analysis (reference value: 0.39%); type: functional
HL-60 [9] = assay: Induction of apoptosis in human HL-60 cells assessed as early apoptotic cells at 7 uM incubated for 48 hrs by Annexin V-FITC/PI staining based flow cytometric analysis (reference value: 11.0%); type: functional
HL-60 [10] = assay: Induction of apoptosis in human HL-60 cells assessed as late apoptotic cells at 7 uM incubated for 48 hrs by Annexin V-FITC/PI staining based flow cytometric analysis (reference value: 4.53%); type: functional
HL-60 [11] = assay: Induction of apoptosis in human HL-60 cells assessed as necrotic cells at 14 uM incubated for 48 hrs by Annexin V-FITC/PI staining based flow cytometric analysis (reference value: 0.39%); type: functional
RAW264.7 [12] = assay: Antiinflammatory activity in LPS-induced mouse RAW264.7 cells assessed as reduction in COX-2 protein expression by Western blot analysis; type: functional, cell-based; conditions: dose 5-20 µM
HL-60 [13] = assay: Induction of apoptosis in human HL-60 cells assessed as early apoptotic cells at 14 uM incubated for 48 hrs by Annexin V-FITC/PI staining based flow cytometric analysis (reference value: 11.0%); type: functional
HL-60 [14] = assay: Induction of cell cycle arrest in human HL-60 cells assessed as G2 phase cells at 14 uM incubated for 48 hrs (reference value: 23.7%); type: functional
RAW264.7 [15] = assay: Antiinflammatory activity in mouse RAW264.7 cells assessed as inhibition of LPS-induced NO production preincubated with compound for 1 hrs followed by LPS stimulation and measured after 24 hrs by Griess reagent based method; type: functional, cell-based
HL-60 [16] = assay: Induction of apoptosis in human HL-60 cells assessed as viable cells at 7 uM incubated for 48 hrs by Annexin V-FITC/PI staining based flow cytometric analysis (reference value: 84.1%); type: functional; conditions: read-out: Activity
HL-60 [17] = assay: Induction of apoptosis in human HL-60 cells assessed as viable cells at 14 uM incubated for 48 hrs by Annexin V-FITC/PI staining based flow cytometric analysis (reference value: 84.1%); type: functional; conditions: read-out: Activity
RAW264.7 [18] = assay: Antiinflammatory activity in mouse RAW264.7 cells assessed as inhibition of LPS-induced nuclear translocation of NF-kappaB p65 preincubated with compound for 1 hrs followed by LPS stimulation and measured after 24 hrs by DAPI staining based immunofluorescence analysis; type: functional, cell-based; conditions: dose 5-20 µM, time 25.0 hrs
HL-60 [19] = assay: Induction of cell cycle arrest in human HL-60 cells assessed as S phase cells at 7 uM incubated for 48 hrs (reference value: 32.3%); type: functional
HL-60 [20] = assay: Cytotoxicity against human HL-60 cells assessed as inhibition of cell growth incubated for 48 hrs by CCK8 assay; type: functional, cell-based; conditions: HL-60, 48 h
HL-60 [21] = assay: Induction of cell cycle arrest in human HL-60 cells assessed as accumulation of G1 phase cells at 14 uM incubated for 48 hrs (reference value: 42.0%); type: functional

With Cc1cc2c(c3c1C[C@@H](O)CC3)CC[C@@]1(C)[C@H]2CCC(=O)[C@@]1(C)/C=C/[C@H](C)C(C)C the Activity (RAW264.7 [1]) was “Active”, the Activity (HL-60 [2]) was 53.8% and the Activity (HL-60 [3]) was 16.1%. The Activity (HL-60 [4]) was 24.9%, the Activity (RAW264.7 [5]) was “Active” and the Activity (HL-60 [6]) was 53.9%. For the same compound, the pIC50 (SU-DHL-2) was 5.16, the Activity (RAW264.7 [7]) was “Active” and the Activity (HL-60 [8]) was 0.57%. The Activity (HL-60 [9]) was 12.1%, the Activity (HL-60 [10]) was 11% and the Activity (HL-60 [11]) was 2.95%. For the same compound, the Activity (RAW264.7 [12]) was “Dose-Dependent Effect”, the Activity (HL-60 [13]) was 21.9% and the Activity (HL-60 [14]) was 9.7%. For the same compound, the pIC50 (RAW264.7 [15]) was 4.71, the viability at 7 µM (HL-60 [16]) was 76.3% and the viability at 14 µM (HL-60 [17]) was 21.3%. For the same compound, the Activity (RAW264.7 [18]) was “Dose-Dependent Effect”, the Activity (HL-60 [19]) was 24.7% and the pIC50 (HL-60 [20]) was 5.06. The Activity (HL-60 [21]) was 62.3%.
